Data reported in publication PMC10144058, “New Hybrid Scaffolds Based on 5-FU/Curcumin: Synthesis, Cytotoxic, Antiproliferative and Pro-Apoptotic Effect” (Pharmaceutics, 2023).
Read-outs that look alike come from different tables or passages of the source. Each block holds one molecule with its values, some of them ahead of it.

Tests used:
Bel7402 = system: Bel7402; set-up: method as in PMID 31080076; settings: cited from earlier work
Bel-7402/5-FU = system: Bel-7402/5-FU; set-up: method as in PMID 31080076; settings: cited from earlier work
HCT-116 cell line = system: HCT-116 cell line; set-up: method as in PMID 27060762; settings: cited from earlier work
tubulin polymerization = system: tubulin polymerization; set-up: method as in PMID 27060762; settings: in THP-1 tumor cells; read-out: IC50, inhibition of tubulin polymerization; cited from earlier work
THP-1 cell line = system: THP-1 cell line; set-up: method as in PMID 27060762; settings: cited from earlier work
COLO-205 cell line = system: COLO-205 cell line; set-up: method as in PMID 27060762; settings: cited from earlier work
normal 3T3 cells = system: normal 3T3 cells; set-up: method as in PMID 31080076; settings: normal 3T3 cells (mouse embryonic fibroblast cell line); cited from earlier work
SW620 cells [1] = assay: Cell death induction (Annexin-V/PI, flow cytometry); assay type: cell-based, human; settings: SW620, treated with IC50, 48 h
Protocol: For this method, 250,000 cells/well were initially seeded in 6-well culture plates during a 24 h adherence period at 37 °C in a 5% CO2 atmosphere. […] After treatment, cells were obtained by mechanical disaggregation, resuspended in a solution with Annexin-V-FLUOS and PI, and incubated for 20 min in the dark before flow cytometry analysis.

SW480 cells [2] = assay: Cell viability, sulforhodamine B (SRB) assay; assay type: cell-based; settings: Homo sapiens
Protocol: (§1) SW480 (colon adenocarcinoma) and SW620 (derived metastatic) malignant cell lines, and the non-malignant lines HaCaT (human keratinocytes) and CHO-K1 (Chinese Hamster Ovary), were obtained from the European Collection of Authenticated Cell Cultures (ECACC, Porton Down, Salisbury, UK). The cells were maintained in Dulbecco’s Modified Eagle’s Medium (DMEM), supplemented with 10% equine serum previously inactivated at 56 °C, 1% penicillin/streptomycin, and 1% non-essential amino acids, and incubated at 37 °C in an atmosphere with 5% CO2. To carry out the experiments, the serum was diluted to 3% and additionally supplemented with […] insulin, […] transferrin, and 5 ng/mL selenium. Cells were used for experimentation when they reached 80–90% confluence, using a 1X trypsin enzymatic disintegration method. To avoid contamination by Mycoplasma spp., cell cultures were periodically analyzed by polymerase chain reaction (PCR).
(§2) Cell viability was evaluated with a sulforhodamine B (SRB) assay. This technique provides an index of protein contents in living and adherent cells, whose optical density can be related to cell concentration. Initially, 20,000 cells were seeded per well in 96-well culture plates. An initial adherence period of 24 h was performed at 37 °C, 5% CO2, and after this, the medium was replaced by another that contained the hybrid compounds in different concentrations. Then, the cells were left incubating for 24 and 48 h under the same conditions previously described. After the respective incubation times, the cells were fixed with trichloroacetic acid (50% v/v) for 1 h at 4 °C and stained with 0.4% (p/v) of SRB. Subsequently, washings with 1% acetic acid were carried out to eliminate possible nonspecific bindings, and after solubilization with 10 mM Tris-base, the absorbance was read at 492 nm in a microplate reader (Mindray MR-96A). All the experiments were carried out in triplicate.

SW620 cells [3] = assay: Mitochondrial membrane potential (DiOC6/PI, flow cytometry); assay type: cell-based, human; settings: SW620, treated with IC50, 48 h
Protocol: The fluorescent dyes PI and DIOC6 (3,3’-dihexyloxacarbocyanine iodide) were used to observe the depolarization of the mitochondrial membrane as well as possible cell membrane damage. For this method, 250,000 cells/well were initially seeded in 6-well culture plates during a 24 h adherence period at 37 °C in a 5% CO2 atmosphere. […] After treatment, cells were obtained by mechanical disaggregation, stained with DiOC6 and PI, and incubated at room temperature for 30 min in the dark. Ten thousand events were analyzed by flow cytometry with excitation at 488 nm and emission detection with green (530/15 nm) and red (610/20 nm) filters.

[4] = system: caspase 3, caspase 7, caspase 8 and p53 in SW620 cells; assay: Apoptotic biomarkers (ELISA); assay type: cell-based, human; settings: SW620, treated with IC50, 48 h, vs control
Protocol: To provide an approach to the possible molecular mechanisms through which the hybrid compounds induce an effect on the cell lines, different proteins related to the process of death by apoptosis were determined. For this method, 1,000,000 cells were initially seeded per Petri dish, with an adherence period of 24 h at 37 °C in a 5% CO2 atmosphere. […] Later, the consumed medium was discarded, and after the addition of the versene buffer, the cells were obtained by mechanical disaggregation. The cells were then lysed with a cell lysis buffer and centrifuged to obtain the supernatant, which was used to determine the biomarkers of interest by enzyme-linked immunosorbent assays. These ELISA kits were provided by Elabscience Biotechnology Co., Houston, TX, USA [26].

SW620 cells [5] = assay: Cell cycle analysis (PI, flow cytometry); assay type: cell-based, human; settings: SW620, treated with IC50 value, 48 h
Protocol: The method used for the recognition of cell cycle phases (G0/G1, S, G2/M) was based on staining with a fluorescent dye (propidium iodide—PI), as a direct relationship between fluorescence intensity and DNA content can be established. For this method, 250,000 cells/well were initially seeded in 6-well culture plates with an adherence period of 24 h at 37 °C in a 5% CO2 atmosphere. […] After treatment, cells were obtained by mechanical disaggregation, and the cell pellet was centrifuged and washed with a versene buffer. The cell pellet was fixed with 1.8 mL of cold 70% ethanol and kept at 4 °C overnight. Subsequently, two washes with a versene buffer were performed, and the pellet was resuspended in 300 µL of PBS containing 0.25 mg/mL of RNAsa and 0.1 mg/mL of PI. After a 30 min period of dark incubation, the fluorescence of 10,000 cells was analyzed using a FACS Canto II flow cytometer. The PI signal was analyzed with excitation at 488 nm using a sapphire laser, and fluorescence was detected at 610 nm. The data analysis was performed with FlowJo 10.8.1 software.

CHO-K1 cells = assay: Cell viability, sulforhodamine B (SRB) assay, non-malignant cells; assay type: cell-based, Chinese Hamster; settings: Cricetulus griseus
Protocol: as §1, §2

SW620 cells [6] = assay: Antiproliferative activity (SRB, 0-8 days); assay type: cell-based, human; settings: for viability at 2.5 µM / viability at 40 µM: Homo sapiens, read-out: Cell Viability (%) ± SE; for viability at 2.5 µM: SW620, 2.5 µM; for viability at 40 µM: SW620, 40 µM
Protocol: For this experiment, the same colorimetric method (SRB) from the evaluation of cell viability was used, although with some modifications. Initially, 2500 cells per well were seeded in 96-well culture plates, and a 24 h adherence period was performed at 37 °C in a 5% CO2 atmosphere. […] For this assay, incubation periods of 0, 2, 4, 6, and 8 days were used, and the fixation, staining, and reading conditions were the same as those previously described for the cytotoxicity assay.

SW620 cells [7] = assay: Cell viability, sulforhodamine B (SRB) assay; assay type: cell-based, human
Protocol: as §1, §2

HaCaT cells = assay: Cell viability, sulforhodamine B (SRB) assay, non-malignant cells; assay type: cell-based; settings: Homo sapiens
Protocol: as §1, §2

metastatic SW620 = system: metastatic SW620; set-up: method as in PMID 33652694; settings: cited from earlier work
[8] = system: HT29 colorectal adenocarcinoma cells; set-up: method as in PMID 33652694; settings: cited from earlier work
MGC-803 = system: MGC-803; set-up: method as in PMID 30025345; settings: cited from earlier work
U87 = system: U87; set-up: method as in PMID 30025345; settings: cited from earlier work
SMMC-7721 = system: SMMC-7721; set-up: method as in PMID 30025345; settings: cited from earlier work
SGC-7901 = system: SGC-7901; set-up: method as in PMID 30025345; settings: cited from earlier work
[9] = system: SW480 human colon adenocarcinoma cells; set-up: method as in PMID 34062841; settings: cited from earlier work
SW620 cell line = system: SW620 cell line; set-up: method as in PMID 34062841; settings: cited from earlier work
MM1S cells = system: MM1S cells; set-up: method as in PMID 23784627; settings: cited from earlier work
RPMI8226 cells = system: RPMI8226 cells; set-up: method as in PMID 23784627; settings: cited from earlier work
U266 cells = system: U266 cells; set-up: method as in PMID 23784627; settings: cited from earlier work
SW480 cells [10] = system: SW480 cells; set-up: method as in PMID 36297411; settings: cited from earlier work
SW620 cells [11] = system: SW620 cells; set-up: method as in PMID 36297411; settings: cited from earlier work
[12] = SW-620, 48 h, 2 days after plating
[13] = SW-620, 96 h, 4 days after plating
[14] = SW-620, 144 h, 6 days after plating
[15] = SW-620, 192 h, 8 days after plating

Compound: COc1cccc2c1C(=O)c1c(O)c3c(c(O)c1C2=O)C[C@@](O)(C(=O)CO)C[C@@H]3O[C@H]1C[C@H](N)[C@H](O)[C@H](C)O1 [Adriamycin]
IC50 (Bel7402): 0.73 µM | IC50 (Bel-7402/5-FU): 1.14 µM

Compound: COc1cc(/C=C/C(=O)/C=C/c2cc(OC)c(OC)c(OC)c2)ccc1OCc1cn(CCOc2cc(=O)oc3ccccc23)nn1 [J]
IC50 (HCT-116 cell line): 2.21 µM | IC50 (tubulin polymerization): 0.82 µM | IC50 (THP-1 cell line): 0.82 µM | IC50 (COLO-205 cell line): 4.68 µM

Compound: C=C1C(=O)OC2C1CCC(COC(=O)Cn1cc(F)c(=O)n(Cc3ccc(C(F)(F)F)cc3)c1=O)=CCCC1(C)OC21 (centres unmarked) [D]
IC50 (normal 3T3 cells): 5.2 µM

IC50 (SW480 cells [2]; SW480, 24 h): 38.8 ± 5.46 µM | IC50 (SW480 cells [2]; SW480, 48 h): 18.2 ± 0.88 µM | IC50 (SW620 cells [7]; 48 h): 14.5 ± 1.31 µM | IC50 (SW620 cells [7]; Homo sapiens, SW-620, 24 h, 24 h): > 100 µM | IC50 (SW620 cells [7]; Homo sapiens, SW-620, 48 h, 48 h): 19.5 µM
Compound: COc1cc(/C=C/C(=O)c2ccc(OCCCCCCn3cc(Cn4cc(F)c(=O)[nH]c4=O)nn3)cc2)ccc1O [Compound 6e, (E)-5-fluoro-1-((1-(6-(4-(3-(4-hydroxy-3-methoxyphenyl)acryloyl)phenoxy)hexyl)-1H-1,2,3-triazol-4-yl)methyl)pyrimidine-2,4(1H,3H)-dione]
Annexin V/PI quadrant Q4 (viable cells) (SW620 cells [1]): 84.7% | Dioc6 High population (live cells with high membrane polarization) (SW620 cells [3]): 96% | Dioc6 Low population (cells that lose membrane polarization) (SW620 cells [3]): 0% | PI+ population (membrane damage or dead cells) (SW620 cells [3]): 4.05% | changes in the mitochondrial membrane potential (SW620 cells [3]): do not induce significant changes | levels of executioner caspases 3 and 7 [4]: Significantly increased levels | Cell cycle distribution, G0/G1 (SW620 cells [5]): 20.6% | Cell cycle distribution, G2/M (SW620 cells [5]): 8.8% | Cell cycle distribution, S Phase (SW620 cells [5]): 24.5% | IC50 (CHO-K1 cells; CHO-K1, 24 h): 33.8 ± 2.2 µM | IC50 (CHO-K1 cells; CHO-K1, 48 h): 34.5 ± 1.37 µM | viability at 2.5 µM (SW620 cells [6]; [12]): 95.6 ± 4.08% | viability at 40 µM (SW620 cells [6]; [12]): 8.77 ± 1.85% | viability at 2.5 µM (SW620 cells [6]; [13]): 60.65 ± 0.46% | viability at 40 µM (SW620 cells [6]; [13]): 0% | viability at 2.5 µM (SW620 cells [6]; [14]): 56.5 ± 2.09% | viability at 40 µM (SW620 cells [6]; [14]): 0% | viability at 2.5 µM (SW620 cells [6]; [15]): 48.9 ± 3.46% | viability at 40 µM (SW620 cells [6]; [15]): 0% | inhibition percentages (decrease in cell viability) (SW620 cells [6]; SW620, from 20 µM, day 2): higher than 30% | IC50 (HaCaT cells; 24 h): 76.9 ± 5.87 µM | IC50 (HaCaT cells; 48 h): 19.7 ± 1.99 µM

Compound: COc1cccc(/C=C2\CCC/C(=C\c3cccc(OC)c3OC)C2=O)c1OC [DMCH, (2E,6E)-2,6-Bis(2,3-Dimethoxybenzylidine) Cyclohexanone]
increase of the sub-G0/G1 population in the cell cycle (metastatic SW620): more than 70% | increase of the sub-G0/G1 population in the cell cycle [8]: more than 70%

Compound: COc1cc(OC)c2c(=O)c(OCCCOc3ccccc3/C=C/C(=O)/C=C/c3ccccn3)c(-c3cc(OC)c(OC)c(OC)c3)oc2c1 [H]
IC50 (MGC-803): 0.56 µM | IC50 (U87): 3.93 µM | IC50 (SMMC-7721): 3.18 µM | IC50 (SGC-7901): 1.08 µM

Compound: COc1ccc(/C=C/c2ccc(C(=O)/C=C/c3ccc(O)c(OC)c3)cc2)c(OC)c1 [G]
IC50 [9]: 29.2 µM | IC50 (SW620 cell line): 20.4 µM

Compound: COc1cc(/C=C/C(=O)C(=Cc2cccc3c2C(=O)N(C2CCC(=O)NC2=O)C3=O)C(=O)/C=C/c2ccc(O)c(OC)c2)ccc1O (centres unmarked) [I]
IC50 (MM1S cells): 6.44 µM | IC50 (RPMI8226 cells): 4.55 µM | IC50 (U266 cells): 3.96 µM

Compound: O=c1[nH]c(=O)n(Cc2cn(CCOc3cc(O)c4c(=O)c(-c5ccc(O)cc5)coc4c3)nn2)cc1F [E]
IC50 (SW480 cells [10]): 62.7 ± 7.26 µM | IC50 (SW620 cells [11]): 50.6 ± 1.33 µM
